From patent publication US9403829B2, “Pharmaceutical compositions of 7-(6-(2-hydroxypropan-2-yl)pyridin-3-yl)-1-((trans)-4-methoxycyclohexyl)-3,4-dihydropyrazino [2,3-b]pyrazin-2(1H)-one, a solid form thereof and methods of their use” (Signal Pharmaceuticals, LLC, priority 2011, dated 2016)
Like-named read-outs stand apart in the source and are kept apart here.

Assay: Pharmacokinetics of the metabolite produced in vivo after administration of 7.5-60 mg Compound A
Conditions: human; for AUC(0-t): read-out: AUC0-24; for concentration at 15 day: read-out: Ctrough
Experimental: In certain embodiments, the pharmacokinetic parameters in connection with the metabolite of Compound A produced via administration of 7.5 mg, 15 mg, 30 mg, 45 mg and 60 mg of Compound A are obtained using the protocol set forth in Section 5.2.1 (paragraphs [00497]-[00520]) of U.S. provisional application No. 61/653,436, filed May 31, 2012, which is incorporated by reference herein in its entirety.
In certain embodiments, the pharmacokinetic parameters set forth herein are mean values obtained from multiple subjects.
In certain embodiments, the metabolite of Compound A is the O-desmethyl metabolite.

[1] = 7.5 mg, day 1 of administration of about 7.5 mg of Compound A
[2] = 7.5 mg, on day (number not given) of once a day administration of about 7.5 mg of Compound A
[3] = 15 mg, day 1 of administration of about 15 mg of Compound A
[4] = 15 mg, on day (number not given) of once a day administration of about 15 mg of Compound A
[5] = 30 mg, day 1 of administration of about 30 mg of Compound A
[6] = 30 mg, day 15 of once a day administration of about 30 mg of Compound A
[7] = 45 mg, day 1 of administration of about 45 mg of Compound A
[8] = 45 mg, day 15 of once a day administration of about 45 mg of Compound A
[9] = 60 mg, day 1 of administration of about 60 mg of Compound A
[10] = 60 mg, day 15 of once a day administration of about 60 mg of Compound A

`CC(C)(O)c1ccc(-c2cnc3c(n2)N([C@H]2CC[C@H](O)CC2)C(=O)CN3)cn1` [O-Desmethyl metabolite, 1-((1r,4r)-4-hydroxycyclohexyl)-7-(6-(2-hydroxypropan-2-yl)pyridin-3-yl)-3,4-dihydropyrazino[2,3-b]pyrazin-2(1H)-one] showed an AUC(0-inf) [1] of 7950 ng·h/mL, a Cmax [1] of 143 ng/mL and a Tmax [1] of 8 h. For the same compound, the half-life [1] was 35 h, the AUC(0-t) [1] was 2740 ng·h/mL and the AUC(0-inf) [2] was 45600 ng·h/mL. The Cmax [2] was 363 ng/mL, the Tmax [2] was 2 h and the AUC(0-t) [2] was 6400 ng·h/mL. The AUC(0-inf) [3] was 5820 ng·h/mL, the Cmax [3] was 309 ng/mL and the Tmax [3] was 2 h. It also gave a half-life [3] of 12 h, an AUC(0-t) [3] of 3830 ng·h/mL and an AUC(0-inf) [4] of 9750 ng·h/mL. For the same compound, the Cmax [4] was 458 ng/mL, the Tmax [4] was 3 h and the AUC(0-t) [4] was 5680 ng·h/mL. For the same compound, the AUC(0-inf) [5] was 27700 ng·h/mL, the Cmax [5] was 776 ng/mL and the Tmax [5] was 7 h. It also gave a half-life [5] of 21 h, an AUC(0-t) [5] of 13300 ng·h/mL and an AUC(0-inf) [6] of 118000 ng·h/mL. For the same compound, the Cmax [6] was 1770 ng/mL, the Tmax [6] was 2 h and the AUC(0-t) [6] was 29400 ng·h/mL. For the same compound, the AUC(0-inf) [7] was 27300 ng·h/mL, the Cmax [7] was 1150 ng/mL and the Tmax [7] was 3 h. It also gave a half-life [7] of 17 h, an AUC(0-t) [7] of 15900 ng·h/mL and an AUC(0-inf) [8] of 77700 ng·h/mL. For the same compound, the Cmax [8] was 2240 ng/mL, the Tmax [8] was 2 h and the AUC(0-t) [8] was 32700 ng·h/mL. It also gave an AUC(0-inf) [9] of 37500 ng·h/mL, a Cmax [9] of 1440 ng/mL and a Tmax [9] of 4 to 6 h. For the same compound, the half-life [9] was 16 h, the AUC(0-t) [9] was 21500 ng·h/mL and the AUC(0-inf) [10] was 138000 ng·h/mL. It also gave a Cmax [10] of 2520 ng/mL, a Tmax [10] of 3 h and an AUC(0-t) [10] of 46900 ng·h/mL. The concentration at 15 day (day 15 of once a day administration of about 30 mg of Compound A) was 1100 ng/mL, the concentration at 15 day (day 15 of once a day administration of about 45 mg of Compound A) was 1180 ng/mL and the concentration at 15 day (day 15 of once a day administration of about 60 mg of Compound A) was 1470 ng/mL.
